According to patent US9932637B2, “Genetic polymorphisms associated with cardiovascular disorders and drug response, methods of detection and uses thereof” (CELERA CORPORATION, priority 2003, dated 2018):
Values joined by “and” are separate entries in the source; they are usually repeats but may differ in a detail not shown here. Identical values can stand only once.

Tested on: patients with prior myocardial infarction (CARE study)
Assay: CARE aligned analysis (prospective and case/control design, white males): association of genotypes with pravastatin efficacy (Tables 13, 15)
Assay type: in vivo, human
Conditions: for Pravastatin vs placebo odds ratio, 0 rare alleles / Pravastatin vs placebo odds ratio, 1 rare allele / Pravastatin vs placebo odds ratio, 2 rare alleles / 2 rare alleles n/total (%), pravastatin patients: CARE, F MI/SD/NF MI; for Pravastatin Patients (%) / Pravastatin Patients n/total: WM
Method: The data presented in Table 8 based on an association of genotypes with pravastatin efficacy of the CARE samples were further analyzed and presented in Table 13. The further analysis was performed to align the data obtained from the analysis of the CARE samples, which was a prospective study, to the analysis of the WOSCOP samples, which was a case/control study. Table 13 also presents an analysis of the association of genotypes with pravastatin efficacy in the WOSCOPs samples. Relative to the analysis performed on the data presented in Table 8, there are two significant differences to determine if the SNP influenced pravastatin efficacy. Data obtained from the CARE samples were separated by study design into two groups, those in the prospective study design group and those in the case/control study design group. The original care study contained 16 protocol defined cardiovascular disease defined endpoints and 150 other phenotypes. […] The control groups used to compare the data were also divided into two groups, the “all possible” control group and the “cleaner” control group. […] Because the participants in the WOSCOPs trial were all white males, only data obtained from white males in the CARE study were analysed. Data from the “all possible” and “cleaner” controls were compared to data obtained from the cases in the prospective study design while only data from “cleaner” controls were compared to cases in the case/control study design. The data from the case/control cohorts were analysed using conditional logistic regression (as opposed to logistic regression used for the original anaylsis).
The anaylsis was refined as described for both Tables 13 and 14.

[1] = KLK14 hCV16044337, 0 Rare Alleles, CARE Case/Control, F&NF MI, All Possible controls
[2] = KLK14 hCV16044337, 0 Rare Alleles, CARE Case/Control, F&NF MI, Cleaner controls
[3] = KLK14 hCV16044337, 0 Rare Alleles, CARE Prospective, F&NF MI, All Possible controls
[4] = KLK14 hCV16044337, 0 Rare Alleles, CARE Prospective, F&NF MI, Cleaner controls
[5] = KLK14 hCV16044337, 1 Rare Allele, CARE Case/Control, F&NF MI, All Possible controls
[6] = KLK14 hCV16044337, 1 Rare Allele, CARE Case/Control, F&NF MI, Cleaner controls
[7] = KLK14 hCV16044337, 1 Rare Allele, CARE Prospective, F&NF MI, All Possible controls
[8] = KLK14 hCV16044337, 1 Rare Allele, CARE Prospective, F&NF MI, Cleaner controls
[9] = KLK14 hCV16044337, Case/Control
[10] = LPA hCV11225994, 0 Rare Alleles, CARE Case/Control, F&NF MI, Cleaner controls
[11] = LPA hCV11225994, 1 Rare Allele, CARE Case/Control, F&NF MI, Cleaner controls
[12] = MYH7 hCV25629396, 0 Rare Alleles, CARE Case/Control, F&NF MI, Cleaner controls
[13] = MYH7 hCV25629396, 0 Rare Alleles, CARE Prospective, F&NF MI, Cleaner controls
[14] = MYH7 hCV25629396, 1 Rare Allele, CARE Case/Control, F&NF MI, All Possible controls
[15] = MYH7 hCV25629396, 1 Rare Allele, CARE Case/Control, F&NF MI, Cleaner controls
[16] = MYH7 hCV25629396, 1 Rare Allele, CARE Prospective, F&NF MI, All Possible controls
[17] = MYH7 hCV25629396, 1 Rare Allele, CARE Prospective, F&NF MI, Cleaner controls
[18] = NOS3 hCV3219460, 0 Rare Alleles, CARE Case/Control, F&NF MI, All Possible controls
[19] = NOS3 hCV3219460, 0 Rare Alleles, CARE Case/Control, F&NF MI, Cleaner controls
[20] = NOS3 hCV3219460, 0 Rare Alleles, CARE Prospective, F&NF MI, All Possible controls
[21] = NOS3 hCV3219460, 0 Rare Alleles, CARE Prospective, F&NF MI, Cleaner controls
[22] = NOS3 hCV3219460, 1 Rare Allele, CARE Case/Control, F&NF MI, All Possible controls
[23] = NOS3 hCV3219460, 1 Rare Allele, CARE Case/Control, F&NF MI, Cleaner controls
[24] = NOS3 hCV3219460, 1 Rare Allele, CARE Prospective, F&NF MI, All Possible controls

CC[C@H](C)C(=O)O[C@H]1C[C@H](O)C=C2C=C[C@H](C)[C@H](CC[C@@H](O)C[C@@H](O)CC(=O)O)[C@H]21 [pravastatin]
Pravastatin vs placebo odds ratio, 0 rare alleles (KDR hCV22271999, Case/Control): 0.67 and 0.59 | Pravastatin vs placebo odds ratio, 1 rare allele (KDR hCV22271999, Case/Control): 1.69 | Pravastatin vs placebo odds ratio, 2 rare alleles (KDR hCV22271999, Case/Control): 0.38 and 0.31 | 2 rare alleles n/total (%), pravastatin patients (KDR hCV22271999, Prospective): (9.1%) | Pravastatin vs placebo odds ratio, 0 rare alleles (KDR hCV22271999, Prospective): 0.61 | Pravastatin vs placebo odds ratio, 1 rare allele (KDR hCV22271999, Prospective): 1.41 | Pravastatin vs placebo odds ratio, 2 rare alleles (KDR hCV22271999, Prospective): 0.27 | Pravastatin Patients (%) [1]: (10.9%) | Pravastatin Patients n/total [1]: 60/548 | Pravastatin Patients (%) [2]: (16.4%) | Pravastatin Patients n/total [2]: 60/365 | Pravastatin Patients (%) [3]: (10.7%) | Pravastatin Patients n/total [3]: 60/560 | Pravastatin Patients (%) [4]: (16.0%) | Pravastatin Patients n/total [4]: 60/374 | Pravastatin Patients (%) [5]: (10.4%) | Pravastatin Patients n/total [5]: 57/547 | Pravastatin Patients (%) [6]: (14.3%) | Pravastatin Patients n/total [6]: 57/399 | Pravastatin Patients (%) [7]: (10.3%) | Pravastatin Patients n/total [7]: 57/556 | Pravastatin Patients (%) [8]: (14.1%) | Pravastatin Patients n/total [8]: 57/404 | Pravastatin vs placebo odds ratio, 0 rare alleles [9]: 1.02 and 0.98 | Pravastatin vs placebo odds ratio, 1 rare allele [9]: 0.85 and 0.74 | Pravastatin vs placebo odds ratio, 2 rare alleles [9]: 0.23 | Pravastatin vs placebo odds ratio, 0 rare alleles (KLK14 hCV16044337, Prospective): 1.04 and 0.97 | Pravastatin vs placebo odds ratio, 1 rare allele (KLK14 hCV16044337, Prospective): 0.86 and 0.73 | Pravastatin vs placebo odds ratio, 2 rare alleles (KLK14 hCV16044337, Prospective): 0.22 and 0.23 | Pravastatin Patients (%) [10]: (14.0%) | Pravastatin Patients n/total [10]: 88/627 | Pravastatin Patients (%) [11]: (15.4%) | Pravastatin Patients n/total [11]: 29/188 | 2 Rare Alleles (%), Pravastatin Patients (LPA hCV11225994, CARE Case/Control, F&NF MI): (41.2%) | 2 rare alleles n/total (%), pravastatin patients (MICA hCV25474101, Case/Control): (37.5%) | Pravastatin vs placebo odds ratio, 0 rare alleles (MICA hCV25474101, Case/Control): 0.67 | Pravastatin vs placebo odds ratio, 1 rare allele (MICA hCV25474101, Case/Control): 0.72 | Pravastatin vs placebo odds ratio, 2 rare alleles (MICA hCV25474101, Case/Control): 6.64 | Pravastatin Patients (%) (MYH7 hCV25629396, 0 Rare Alleles, CARE Case/Control, F&NF MI, All Possible controls): (10.0%) | Pravastatin Patients (%) [12]: (14.5%) | Pravastatin Patients n/total [12]: 118/815 | Pravastatin Patients (%) (MYH7 hCV25629396, 0 Rare Alleles, CARE Prospective, F&NF MI, All Possible controls): (9.8%) | Pravastatin Patients (%) [13]: (14.2%) | Pravastatin Patients n/total [13]: 118/829 | Pravastatin Patients (%) [14]: (29.0%) | Pravastatin Patients n/total [14]: 9/31 | Pravastatin Patients (%) [15]: (40.9%) | Pravastatin Patients n/total [15]: 9/22 | Pravastatin Patients (%) [16]: (29.0%) | Pravastatin Patients n/total [16]: 9/31 | Pravastatin Patients (%) [17]: (40.9%) | Pravastatin Patients n/total [17]: 9/22 | Pravastatin vs placebo odds ratio, 0 rare alleles (MYH7 hCV25629396, Case/Control): 0.75 and 0.67 | Pravastatin vs placebo odds ratio, 1 rare allele (MYH7 hCV25629396, Case/Control): 12.05 and 11.70 | Pravastatin vs placebo odds ratio, 0 rare alleles (MYH7 hCV25629396, Prospective): 0.75 and 0.66 | Pravastatin vs placebo odds ratio, 1 rare allele (MYH7 hCV25629396, Prospective): 13.41 and 14.00 | Pravastatin Patients (%) [18]: (10.0%) | Pravastatin Patients n/total [18]: 53/529 | Pravastatin Patients (%) [19]: (14.8%) | Pravastatin Patients n/total [19]: 53/359 | Pravastatin Patients (%) [20]: (9.8%) | Pravastatin Patients n/total [20]: 53/539 | Pravastatin Patients (%) [21]: (14.4%) | Pravastatin Patients n/total [21]: 53/368 | Pravastatin Patients (%) [22]: (12.3%) | Pravastatin Patients n/total [22]: 64/520 | Pravastatin Patients (%) [23]: (17.6%) | Pravastatin Patients n/total [23]: 64/363 | Pravastatin Patients (%) [24]: (12.1%) | Pravastatin Patients n/total [24]: 64/527 | Pravastatin Patients (%) (NOS3 hCV3219460, 1 Rare Allele, CARE Prospective, F&NF MI, Cleaner controls): (17.5%)
